{"source": "patent US20080306098A1", "about": "“Pharmacokinetics of protease inhibitors and other drugs” (priority 2006, published 2008)", "key": {"[1]": {"conditions": "unmodified drug; cited from earlier work"}, "[2]": {"conditions": "in vivo; cited from earlier work"}, "[3]": {"conditions": "non-transplant patients; cited from earlier work"}, "[4]": {"target": "T1, CYP3a4 (Homo sapiens, UniProt P08684)", "T1 construct": "purchased Invitrogen (Carlsbad, Calif.)", "T1 sequence (P08684 whole entry)": "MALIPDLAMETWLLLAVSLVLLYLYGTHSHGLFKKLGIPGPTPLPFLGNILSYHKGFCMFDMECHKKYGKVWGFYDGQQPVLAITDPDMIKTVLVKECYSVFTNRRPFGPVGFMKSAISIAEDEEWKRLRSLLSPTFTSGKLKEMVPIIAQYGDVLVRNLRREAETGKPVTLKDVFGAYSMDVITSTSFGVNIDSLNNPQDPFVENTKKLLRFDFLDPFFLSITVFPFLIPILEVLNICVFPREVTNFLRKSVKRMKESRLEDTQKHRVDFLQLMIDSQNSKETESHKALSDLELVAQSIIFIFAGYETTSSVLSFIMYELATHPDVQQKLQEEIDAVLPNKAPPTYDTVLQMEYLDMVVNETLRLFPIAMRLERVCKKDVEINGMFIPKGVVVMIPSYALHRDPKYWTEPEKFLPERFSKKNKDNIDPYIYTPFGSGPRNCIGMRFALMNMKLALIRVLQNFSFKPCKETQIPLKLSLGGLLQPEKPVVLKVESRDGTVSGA", "assay": "Fluorescence-based CYP3a4 assay (Invitrogen VIVID probes), with or without recombinant human FKBP", "assay_type": "in vitro ADME", "excerpt": "An amyloid ligand, curcumin, is known to be a good substrate for CYP3a4 (a common P450 enzyme). We investigated whether conjugates between curcumin and FK506 would also be substrates for the enzyme. To test this possibility, we utilized a well-known fluorescence-based CYP3a4 assay. This assay, marketed by Invitrogen (Carlsbad, Calif.), under the name VIVID probes, relies on cytochrome-mediated production of a fluorescent marker from a model substrate. When a compound, such as curcumin, binds to the P450, it displaces the substrate and reduces the rate of production of the fluorescent product. […] However, when we supplied a source of human FKBP (in this case, recombinant bacterially-expressed protein), we observed very different results as shown in FIG. 3. […] It is believed that FKBP protects the curcumin conjugates from degradation by sterically hindering CYP3a4 binding. In the presence of cellular FKBP sources, this effect would be predicted to be increased because the compartmentalization of the conjugate further reduces availability to P450 enzymes."}}, "note": "Like-named read-outs stand apart in the source and are kept apart here."}
{"smiles": "CN(Cc1cnc2nc(N)nc(N)c2n1)c1ccc(C(=O)N[C@@H](CCC(=O)O)C(=O)O)cc1", "note": "[methotrexate]", "values": [{"measurement": "half-life", "setting": "[1]", "value": 6, "unit": "h"}]}
{"smiles": "C=CC[C@@H]1/C=C(\\C)C[C@H](C)C[C@H](OC)[C@H]2O[C@@](O)(C(=O)C(=O)N3CCCC[C@H]3C(=O)O[C@H](/C(C)=C/[C@@H]3CC[C@@H](O)[C@H](OC)C3)[C@H](C)[C@@H](O)CC1=O)[C@H](C)C[C@@H]2OC", "note": "[FK506, FK506 (tacrolimus)]", "values": [{"measurement": "distribution into protected cellular compartments (in the blood)", "setting": "[2]", "value": "72-98%"}, {"measurement": "half-life", "setting": "[3]", "value": 21, "unit": "h"}]}
{"smiles": "COc1cc(/C=C/C(=O)CC(=O)/C=C/c2ccc(O)c(OC)c2)ccc1O", "note": "[curcumin]", "values": [{"measurement": "protection from degradation by CYP3a4", "setting": "[4]; in the presence of recombinant human FKBP", "value": "unable to protect"}, {"measurement": "substrate for CYP3a4", "setting": "[4]; without FKBP", "value": "good substrates"}]}
